Drawing on PubChem BioAssay AID743107 (Vanderbilt Specialized Chemistry Center, 2013), this text covers activity remaining for 60 molecules.

Calls of active or inactive are those of the source.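 Rule for the calls: active = compound leaving under 60% of the human M5 receptor calcium signal; inactive = the rest.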

The target in this test is Muscarinic acetylcholine receptor M5 (Homo sapiens) (UniProt P08912). Put plainly: inhibitors of ACh-evoked M5 calcium signal – cell-based, single concentration, CHO-K1 hM5, ACh EC80 (AID 743107). Conditions: CHO-K1 hM5, calcium flux, at 10 µM, stronger effect = lower value.
Chain of Muscarinic acetylcholine receptor M5 (Homo sapiens) (P08912 whole entry, looked up): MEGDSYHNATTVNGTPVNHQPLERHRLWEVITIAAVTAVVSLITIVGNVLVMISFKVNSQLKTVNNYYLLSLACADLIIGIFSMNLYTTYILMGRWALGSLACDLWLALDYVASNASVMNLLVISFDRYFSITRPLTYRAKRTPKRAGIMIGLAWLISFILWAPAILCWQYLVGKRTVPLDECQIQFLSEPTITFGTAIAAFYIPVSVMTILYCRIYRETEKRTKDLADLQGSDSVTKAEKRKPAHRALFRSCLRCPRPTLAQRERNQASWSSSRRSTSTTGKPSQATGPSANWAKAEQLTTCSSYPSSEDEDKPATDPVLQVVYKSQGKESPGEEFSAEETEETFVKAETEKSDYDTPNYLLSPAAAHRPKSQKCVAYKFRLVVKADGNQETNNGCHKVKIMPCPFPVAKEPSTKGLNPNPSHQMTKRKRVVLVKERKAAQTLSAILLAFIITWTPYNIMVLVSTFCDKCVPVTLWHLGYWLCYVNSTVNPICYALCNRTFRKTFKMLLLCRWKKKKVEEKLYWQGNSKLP

As to `CC(c1ccccn1)N(C)C(=O)c1cc(CNC(=O)C2CCCC2)on1` (stereo not given), the activity remaining was 77.7% (inactive).

Turning to `CC(=O)c1cccc(OCc2cc(C(=O)N(C)c3ccccn3)no2)c1`, the activity remaining is 77.8% (inactive).

For `CC(=O)NCc1cc(C(=O)N(C)C(C)c2ccccn2)no1` (stereo not given), the activity remaining was 76.8% (inactive).

In the case of `CC(Cl)c1cccc(OCc2cc(C(=O)N(C)C(C)c3ccccn3)no2)c1` (stereo not given), the activity remaining is 76.1% (inactive).

On to `CC(=O)c1cccc(OCc2cc(C(=O)N(C)Cc3ccccc3)no2)c1`, for which the activity remaining is 76.6% (inactive).

Take `CC(=O)c1cccc(OCc2cc(C(=O)Nc3ccccn3)no2)c1`: the activity remaining is 77.1% (inactive).

For the molecule `CC(c1ccccn1)N(C)C(=O)c1cc(COc2ccc(F)cc2)on1` (stereo not given), the activity remaining is 82.2% (inactive).

Turning to `Cc1ccccc1OCc1cc(C(=O)N(C)C(C)c2ccccn2)no1` (stereo not given), the activity remaining is 79.9% (inactive).

On to `CC(=O)c1cccc(OCc2cc(C(=O)N(C)c3cccc4cccnc34)no2)c1`, for which the activity remaining is 74.2% (inactive).

As for `CC(c1ccccn1)N(C)C(=O)c1cc(CNC(=O)c2ccccc2F)on1` (stereo not given), the activity remaining is 71.8% (inactive).

Regarding `CC(=O)c1cccc(N(Cc2cc(C(=O)N(C)C(C)c3ccccn3)no2)C(=O)C(C)(C)C)c1` (stereo not given), the activity remaining was 73.9% (inactive).

For `CC(=O)c1cccc(OCc2cc(C(=O)N(C)C(C)c3ccncc3)no2)c1` (stereo not given), the activity remaining was 80.9% (inactive).

Turning to `COc1ccc(OCc2cc(C(=O)N(C)C(C)c3ccccn3)no2)cc1` (stereo not given), the activity remaining is 82.8% (inactive).

For `CC(=O)c1cccc(N(Cc2cc(C(=O)N(C)C(C)c3ccccn3)no2)C(=O)c2ccccc2F)c1` (stereo not given), the activity remaining was 74.8% (inactive).

For `CC(c1ccccn1)N(C)C(=O)c1cc(COc2ccc(F)c(F)c2)on1` (stereo not given), the activity remaining is 85.3% (inactive).

For `CC(c1ccccn1)N(C)C(=O)c1cc(COc2ccc3c(c2)CCCC3)on1` (stereo not given), the activity remaining was 79% (inactive).

For `CC(=O)c1cccc(OCc2cc(C(=O)N(C)C(C)c3ccccc3)no2)c1` (stereo not given), the activity remaining is 52.9%.

In the case of `CC(c1ccccn1)N(C)C(=O)c1cc(CNC(=O)c2cccc(F)c2)on1` (stereo not given), the activity remaining is 78.2% (inactive).

As for `CC(c1ccccn1)N(C)C(=O)c1cc(COc2ccccc2Cl)on1` (stereo not given), the activity remaining was 77.2% (inactive).

With `CC(c1ccccn1)N(C)C(=O)c1cc(COc2cccc(Oc3ccccc3)c2)on1` (stereo not given), the activity remaining is 83.1% (inactive).

For the molecule `CC(=O)c1cccc(N(Cc2cc(C(=O)N(C)C(C)c3ccccn3)no2)C(=O)c2ccc(F)cc2)c1` (stereo not given), the activity remaining is 71.8% (inactive).

In the case of `COc1cccc(OCc2cc(C(=O)N(C)C(C)c3ccccn3)no2)c1` (stereo not given), the activity remaining is 79.8% (inactive).

For the molecule `CC(=O)c1cccc(OCc2cc(C(=O)N3CCc4ccccc4C3C)no2)c1` (stereo not given), the activity remaining is 81.5% (inactive).

For `CC(=O)c1cccc(N(Cc2cc(C(=O)N(C)C(C)c3ccccn3)no2)C(C)=O)c1` (stereo not given), the activity remaining was 70.4% (inactive).

Regarding `CC(c1ccccn1)N(C)C(=O)c1cc(CNC(=O)c2ccccc2)on1` (stereo not given), the activity remaining was 76.7% (inactive).

`CC(c1ccccn1)N(C)C(=O)c1cc(COc2ccc(Cl)cc2)on1` (stereo not given): the activity remaining is 84.2% (inactive).

As to `Cc1cccc(C(=O)NCc2cc(C(=O)N(C)C(C)c3ccccn3)no2)c1` (stereo not given), the activity remaining is 71.5% (inactive).

For `COc1ccccc1C(=O)N(Cc1cc(C(=O)N(C)C(C)c2ccccn2)no1)c1cccc(C(C)=O)c1` (stereo not given), the activity remaining was 73.8% (inactive).

In the case of `CC(c1ccccn1)N(C)C(=O)c1cc(CNC(=O)C(C)(C)C)on1` (stereo not given), the activity remaining was 77.8% (inactive).

`COc1ccccc1C(=O)NCc1cc(C(=O)N(C)C(C)c2ccccn2)no1` (stereo not given): the activity remaining was 76.4% (inactive).

Turning to `CC(c1ccccn1)N(C)C(=O)c1cc(COc2cccc(C=O)c2)on1` (stereo not given), the activity remaining was 83.1% (inactive).

Regarding `CCN(C(=O)c1cc(COc2cccc(C(C)=O)c2)on1)C(C)c1ccccn1` (stereo not given), the activity remaining was 14.2%.

For `CC(=O)c1cccc(N(Cc2cc(C(=O)N(C)C(C)c3ccccn3)no2)C(=O)c2ccccc2)c1` (stereo not given), the activity remaining is 69.6% (inactive).

`CC(=O)c1cccc(N(Cc2cc(C(=O)N(C)C(C)c3ccccn3)no2)C(=O)c2cccc(F)c2)c1` (stereo not given): the activity remaining is 70% (inactive).

On to `CC(=O)c1cccc(NCc2cc(C(=O)N(C)C(C)c3ccccn3)no2)c1` (stereo not given), for which the activity remaining is 21.4%.

Consider `CC(=O)c1cccc(N(Cc2cc(C(=O)N(C)C(C)c3ccccn3)no2)C(=O)c2ccc(C)cc2)c1` (stereo not given), for which the activity remaining was 63.5% (inactive).

With `CC(=O)c1cccc(OCc2cc(C(=O)NC(c3ccccn3)C(F)(F)F)no2)c1` (stereo not given), the activity remaining was 72.6% (inactive).

As for `CC(c1ccccn1)N(C)C(=O)c1cc(COc2cccc(F)c2)on1` (stereo not given), the activity remaining was 77.1% (inactive).

On to `Cc1ccc(OCc2cc(C(=O)N(C)C(C)c3ccccn3)no2)cc1` (stereo not given), for which the activity remaining was 78.5% (inactive).

In the case of `CC(c1ccccn1)N(C)C(=O)c1cc(COc2ccccc2F)on1` (stereo not given), the activity remaining was 83.7% (inactive).

For `CC(c1ccccn1)N(C)C(=O)c1cc(CNS(C)(=O)=O)on1` (stereo not given), the activity remaining was 80.4% (inactive).

With `Cc1ccc(C(=O)NCc2cc(C(=O)N(C)C(C)c3ccccn3)no2)cc1` (stereo not given), the activity remaining was 75.1% (inactive).

On to `CC(=O)c1cccc(OCc2cc(C(=O)N3CCc4cccnc4C3)no2)c1`, for which the activity remaining was 86.8% (inactive).

For the molecule `Cc1ccccc1C(=O)NCc1cc(C(=O)N(C)C(C)c2ccccn2)no1` (stereo not given), the activity remaining is 73.8% (inactive).

As to `CC(=O)c1ccc(OCc2cc(C(=O)N(C)C(C)c3ccccn3)no2)cc1` (stereo not given), the activity remaining was 75% (inactive).

`CC(=O)c1cccc(OCc2cc(C(=O)NCc3ccccn3)no2)c1`: the activity remaining was 88.7% (inactive).

With `CC(=O)c1cccc(N(Cc2cc(C(=O)N(C)C(C)c3ccccn3)no2)S(=O)(=O)c2ccccc2[N+](=O)[O-])c1` (stereo not given), the activity remaining is 60.6% (inactive).

In the case of `CC(=O)c1cccc(OCc2cc(C(=O)N(C)C(C)c3cccnc3)no2)c1` (stereo not given), the activity remaining was 78.2% (inactive).

Turning to `CC(=O)c1cccc(N(Cc2cc(C(=O)N(C)C(C)c3ccccn3)no2)C(=O)c2ccccc2C)c1` (stereo not given), the activity remaining is 67.2% (inactive).

For `CC(O)c1cccc(OCc2cc(C(=O)N(C)C(C)c3ccccn3)no2)c1` (stereo not given), the activity remaining is 69.3% (inactive).

As for `CC(=O)c1cccc(N(Cc2cc(C(=O)N(C)C(C)c3ccccn3)no2)C(=O)C2CCCC2)c1` (stereo not given), the activity remaining is 66% (inactive).

Take `CC(=O)c1cccc(N(Cc2cc(C(=O)N(C)C(C)c3ccccn3)no2)C(=O)c2cccc(C)c2)c1` (stereo not given): the activity remaining was 65.5% (inactive).

As to `CC(c1ccccn1)N(C)C(=O)c1cc(CNC(=O)c2ccc(F)cc2)on1` (stereo not given), the activity remaining was 77% (inactive).

Turning to `CC(c1ccccn1)N(C)C(=O)c1cc(COc2cccc([N+](=O)[O-])c2)on1` (stereo not given), the activity remaining was 73.7% (inactive).

Regarding `CC(c1ccccn1)N(C)C(=O)c1cc(COc2cccc(CO)c2)on1` (stereo not given), the activity remaining is 75.5% (inactive).

With `CCOc1cccc(OCc2cc(C(=O)N(C)C(C)c3ccccn3)no2)c1` (stereo not given), the activity remaining is 79.2% (inactive).

With `CC(c1ccccn1)N(C)C(=O)c1cc(COc2cccc(Br)c2)on1` (stereo not given), the activity remaining was 71.7% (inactive).

For `CC(=O)c1ccccc1OCc1cc(C(=O)N(C)C(C)c2ccccn2)no1` (stereo not given), the activity remaining was 80.4% (inactive).

Regarding `CC(c1ccccn1)N(C)C(=O)c1cc(COc2cccc(C(F)(F)F)c2)on1` (stereo not given), the activity remaining is 84.1% (inactive).

For `COC(=O)c1cccc(OCc2cc(C(=O)N(C)C(C)c3ccccn3)no2)c1` (stereo not given), the activity remaining is 67.3% (inactive).
